Data on two molecules can be found in ChEMBL document CHEMBL3414430 (J Med Chem, 2015).

≈ marks a conversion by molar mass, not a printed value. Calls of active or inactive are those of the source. No cut-off for these calls is given here.

Data set [1] concerns Mus musculus. Description: AUC (0 to infinity) in ICR mouse at 50 mg/kg, po. Type of data set: ADME, organism-based, Plasma. On the set-up: time infinity, dose 50 mg/kg, route oral. To be noted: in vivo.
Data set [2] is described as follows: Oral bioavailability in ICR mouse at 50 mg/kg. Type of data set: ADME, organism-based. To be noted: in vivo.
In data set [3] the test system is Mus musculus. The data set can be described thus: AUC (0 to infinity) in ICR mouse at 25 mg/kg, iv. Type of data set: ADME, organism-based, Plasma. Set-up: time infinity, dose 25 mg/kg, route intravenous. To be noted: in vivo.
Another data set has as its target T1, Histone deacetylase 8 (Homo sapiens, UniProt Q9BY41).
T1 sequence (Q9BY41 whole entry): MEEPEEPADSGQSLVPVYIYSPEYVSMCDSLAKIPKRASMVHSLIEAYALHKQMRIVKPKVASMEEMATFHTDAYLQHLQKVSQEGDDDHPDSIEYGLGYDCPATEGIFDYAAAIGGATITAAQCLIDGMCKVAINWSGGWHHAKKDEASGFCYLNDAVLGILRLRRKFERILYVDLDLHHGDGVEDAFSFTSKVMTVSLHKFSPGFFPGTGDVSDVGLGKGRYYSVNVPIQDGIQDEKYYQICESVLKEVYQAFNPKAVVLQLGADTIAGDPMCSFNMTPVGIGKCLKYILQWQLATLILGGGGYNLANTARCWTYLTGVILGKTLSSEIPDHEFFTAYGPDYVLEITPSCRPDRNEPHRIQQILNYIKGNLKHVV

A short description of data set [4]: Plasma clearance in ICR mouse. Type of data set: ADME, organism-based.
The nature of data set [5]: Cmax in ICR mouse at 50 mg/kg, po. Type of data set: ADME, organism-based. To be noted: in vivo. On the set-up: dose 50 mg/kg, route oral.
The target of data set [6] is T2, Protein deacetylase HDAC6 (Homo sapiens, UniProt Q9UBN7).
T2 sequence (Q9UBN7 whole entry): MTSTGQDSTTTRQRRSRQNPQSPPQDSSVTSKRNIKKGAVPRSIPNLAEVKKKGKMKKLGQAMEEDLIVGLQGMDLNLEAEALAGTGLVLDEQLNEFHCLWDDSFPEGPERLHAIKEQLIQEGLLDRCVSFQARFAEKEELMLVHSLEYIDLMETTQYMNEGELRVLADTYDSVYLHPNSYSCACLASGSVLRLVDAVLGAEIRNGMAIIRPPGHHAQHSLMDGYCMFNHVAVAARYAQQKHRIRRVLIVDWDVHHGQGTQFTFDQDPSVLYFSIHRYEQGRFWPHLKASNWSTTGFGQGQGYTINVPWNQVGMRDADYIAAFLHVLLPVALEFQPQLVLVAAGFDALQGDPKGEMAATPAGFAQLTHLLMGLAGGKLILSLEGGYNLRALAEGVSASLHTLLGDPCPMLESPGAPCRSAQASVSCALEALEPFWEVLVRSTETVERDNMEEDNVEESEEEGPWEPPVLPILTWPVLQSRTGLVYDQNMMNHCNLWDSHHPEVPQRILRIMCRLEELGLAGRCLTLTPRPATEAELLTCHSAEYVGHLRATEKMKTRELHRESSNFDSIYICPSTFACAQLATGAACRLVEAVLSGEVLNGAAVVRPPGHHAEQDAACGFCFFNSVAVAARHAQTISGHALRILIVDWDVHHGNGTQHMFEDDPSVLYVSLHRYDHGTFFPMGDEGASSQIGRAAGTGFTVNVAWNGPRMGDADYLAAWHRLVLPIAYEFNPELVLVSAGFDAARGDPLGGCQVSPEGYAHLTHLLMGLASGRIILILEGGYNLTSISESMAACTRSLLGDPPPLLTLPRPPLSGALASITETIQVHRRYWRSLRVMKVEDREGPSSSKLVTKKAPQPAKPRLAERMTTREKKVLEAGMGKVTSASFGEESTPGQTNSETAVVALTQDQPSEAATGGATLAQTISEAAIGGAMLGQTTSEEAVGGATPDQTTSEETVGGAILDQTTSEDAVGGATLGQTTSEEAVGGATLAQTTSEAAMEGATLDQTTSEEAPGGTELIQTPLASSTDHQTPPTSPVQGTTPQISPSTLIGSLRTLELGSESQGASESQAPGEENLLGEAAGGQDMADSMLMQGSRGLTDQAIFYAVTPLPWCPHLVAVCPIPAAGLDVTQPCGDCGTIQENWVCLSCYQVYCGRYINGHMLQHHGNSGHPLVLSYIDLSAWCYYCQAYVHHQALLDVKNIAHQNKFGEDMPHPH
Description: Inhibition of HDAC6 (unknown origin) using RHKK(Ac)AMC as substrate

Data set [7] in a line: Intrinsic clearance in mouse liver microsomes at 1 uM preincubated for 10 mins followed by NADPH addition measured over 30 mins by LC-MS/MS analysis. To be noted: read-out: CLH. Type of data set: ADME. Background: Liver microsomes are vesicles of endoplasmic reticulum, rich in cytochrome P450 enzymes.
Data set [8] in a line: Half life in ICR mouse at 25 mg/kg, iv. Type of data set: ADME, organism-based. Set-up: dose 25 mg/kg, route intravenous. To be noted: in vivo.
The target in another data set is Histone deacetylase 1 (Homo sapiens, UniProt Q13547).
Sequence of Histone deacetylase 1 (Q13547 whole entry): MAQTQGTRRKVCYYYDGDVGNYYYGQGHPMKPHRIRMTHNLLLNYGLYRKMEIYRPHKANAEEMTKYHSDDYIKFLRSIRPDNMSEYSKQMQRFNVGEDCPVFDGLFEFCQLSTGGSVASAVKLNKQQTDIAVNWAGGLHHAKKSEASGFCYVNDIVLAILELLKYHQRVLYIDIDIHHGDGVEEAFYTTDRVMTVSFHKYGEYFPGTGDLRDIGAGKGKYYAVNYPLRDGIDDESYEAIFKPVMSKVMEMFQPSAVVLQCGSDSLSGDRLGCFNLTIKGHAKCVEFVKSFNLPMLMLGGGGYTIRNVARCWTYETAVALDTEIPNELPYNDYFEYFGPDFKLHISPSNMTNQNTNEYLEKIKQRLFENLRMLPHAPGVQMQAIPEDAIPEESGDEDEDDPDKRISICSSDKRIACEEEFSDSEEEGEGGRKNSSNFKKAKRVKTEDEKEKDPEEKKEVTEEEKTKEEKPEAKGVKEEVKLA
Data set [9] can be described thus: Intrinsic clearance in human liver microsomes at 1 uM preincubated for 10 mins followed by NADPH addition measured over 30 mins by LC-MS/MS analysis. Type of data set: ADME. To be noted: read-out: CLH.
Data set [10] has as its target Histone deacetylase 1/2/3/6 (Homo sapiens) (UniProt Q13547+O15379+Q9UBN7+Q92769). To be noted: HeLa, at 10 µM.
Description: Inhibition of HDAC1/HDAC2/HDAC3 in human HeLa cells assessed as induction of p21 gene expression at 10 uM after 15 hrs by luciferase reporter gene assay relative to HDAC1 inhibitor SNDX-275
Data set [11] is described as follows: Solubility of the compound in PBS measured after overnight incubation by LYSA assay. Type of data set: physicochemical.
Data set [12] addresses T2, Protein deacetylase HDAC6. The source holds these as a separate data set.
Description: Inhibition of HDAC6 in human A549 cells assessed as induction of tubulin acetylation after 17 to 18 hrs by ELISA
Another data set concerns the target Cytochrome P450 2C9 (Homo sapiens, UniProt P11712). Description: Inhibition of CYP2C9 in human liver microsomes preincubated for 10 mins followed by NADPH addition measured after 30 mins by LC-MS/MS analysis. Type of data set: ADME.
The target of another data set is Cytochrome P450 2D6 (Homo sapiens, UniProt P10635). The data set can be described thus: Inhibition of CYP2D6 in human liver microsomes preincubated for 10 mins followed by NADPH addition measured after 30 mins by LC-MS/MS analysis. Type of data set: ADME.
Sequence of Cytochrome P450 2D6 (P10635 whole entry): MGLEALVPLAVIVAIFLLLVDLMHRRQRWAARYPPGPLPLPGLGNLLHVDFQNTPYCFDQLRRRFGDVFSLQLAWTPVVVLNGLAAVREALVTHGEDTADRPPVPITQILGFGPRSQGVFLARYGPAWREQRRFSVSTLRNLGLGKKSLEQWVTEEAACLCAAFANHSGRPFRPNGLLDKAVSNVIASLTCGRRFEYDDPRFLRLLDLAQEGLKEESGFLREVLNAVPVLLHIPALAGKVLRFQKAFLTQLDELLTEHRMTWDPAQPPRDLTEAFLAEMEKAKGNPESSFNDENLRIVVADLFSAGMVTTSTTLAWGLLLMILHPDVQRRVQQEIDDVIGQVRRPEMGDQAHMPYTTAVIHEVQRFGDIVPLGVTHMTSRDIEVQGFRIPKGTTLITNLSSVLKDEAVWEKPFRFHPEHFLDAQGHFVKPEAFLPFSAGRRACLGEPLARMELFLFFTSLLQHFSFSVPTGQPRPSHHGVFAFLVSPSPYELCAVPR
In the next data set the target is Cytochrome P450 3A4 (Homo sapiens, UniProt P08684). The data set can be described thus: Inhibition of CYP3A4 in human liver microsomes preincubated for 10 mins followed by NADPH addition measured after 30 mins by LC-MS/MS analysis. Type of data set: ADME.
Sequence of Cytochrome P450 3A4 (P08684 whole entry): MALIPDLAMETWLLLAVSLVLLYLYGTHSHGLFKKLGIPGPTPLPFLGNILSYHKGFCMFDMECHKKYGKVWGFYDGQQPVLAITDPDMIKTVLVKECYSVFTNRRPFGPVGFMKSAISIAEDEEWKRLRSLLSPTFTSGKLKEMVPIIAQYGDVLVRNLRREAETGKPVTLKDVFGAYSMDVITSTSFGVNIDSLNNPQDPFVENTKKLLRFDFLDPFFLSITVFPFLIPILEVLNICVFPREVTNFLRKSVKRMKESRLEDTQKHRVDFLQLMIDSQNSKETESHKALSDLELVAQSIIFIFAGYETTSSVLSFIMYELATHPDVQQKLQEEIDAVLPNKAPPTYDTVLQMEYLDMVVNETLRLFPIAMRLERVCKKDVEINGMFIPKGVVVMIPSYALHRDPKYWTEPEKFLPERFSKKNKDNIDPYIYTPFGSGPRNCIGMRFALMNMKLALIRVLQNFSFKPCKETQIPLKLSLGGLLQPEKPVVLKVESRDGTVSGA
The nature of data set [13]: Half life in ICR mouse at 10 mg/kg, iv. Type of data set: ADME, organism-based. On the set-up: dose 10 mg/kg, route intravenous. To be noted: in vivo.
Data set [14] concerns Mus musculus. Description: AUC (0 to infinity) in ICR mouse at 10 mg/kg, iv. Set-up: time infinity, dose 10 mg/kg, route intravenous. To be noted: in vivo. Type of data set: ADME, organism-based, Plasma.
The target in a further data set is Cytochrome P450 2C19 (Homo sapiens, UniProt P33261). The data set can be described thus: Inhibition of CYP2C19 in human liver microsomes preincubated for 10 mins followed by NADPH addition measured after 30 mins by LC-MS/MS analysis. Type of data set: ADME.
Sequence of Cytochrome P450 2C19 (P33261 whole entry): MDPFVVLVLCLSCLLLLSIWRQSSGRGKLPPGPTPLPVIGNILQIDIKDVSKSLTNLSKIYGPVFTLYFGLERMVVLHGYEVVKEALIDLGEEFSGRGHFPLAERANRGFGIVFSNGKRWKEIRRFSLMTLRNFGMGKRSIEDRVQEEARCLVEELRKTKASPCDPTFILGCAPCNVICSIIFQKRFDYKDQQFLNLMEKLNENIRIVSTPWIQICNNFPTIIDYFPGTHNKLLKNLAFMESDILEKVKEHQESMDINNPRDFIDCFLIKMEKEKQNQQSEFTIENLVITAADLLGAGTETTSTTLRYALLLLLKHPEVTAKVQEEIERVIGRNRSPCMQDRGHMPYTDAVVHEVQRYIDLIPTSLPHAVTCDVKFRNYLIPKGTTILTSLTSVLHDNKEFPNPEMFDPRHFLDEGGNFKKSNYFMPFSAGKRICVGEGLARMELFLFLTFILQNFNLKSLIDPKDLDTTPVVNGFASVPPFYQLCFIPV
Data set [15] in a line: Oral bioavailability in ICR mouse at 100 mg/kg. Type of data set: ADME, organism-based. To be noted: in vivo.
Data set [16] can be described thus: Cmax in ICR mouse at 100 mg/kg, po. Type of data set: ADME, organism-based. On the set-up: dose 100 mg/kg, route oral. To be noted: in vivo.
A further data set concerns the target T3, Cytochrome P450 1A2 (Homo sapiens, UniProt P05177).
T3 sequence (P05177 whole entry): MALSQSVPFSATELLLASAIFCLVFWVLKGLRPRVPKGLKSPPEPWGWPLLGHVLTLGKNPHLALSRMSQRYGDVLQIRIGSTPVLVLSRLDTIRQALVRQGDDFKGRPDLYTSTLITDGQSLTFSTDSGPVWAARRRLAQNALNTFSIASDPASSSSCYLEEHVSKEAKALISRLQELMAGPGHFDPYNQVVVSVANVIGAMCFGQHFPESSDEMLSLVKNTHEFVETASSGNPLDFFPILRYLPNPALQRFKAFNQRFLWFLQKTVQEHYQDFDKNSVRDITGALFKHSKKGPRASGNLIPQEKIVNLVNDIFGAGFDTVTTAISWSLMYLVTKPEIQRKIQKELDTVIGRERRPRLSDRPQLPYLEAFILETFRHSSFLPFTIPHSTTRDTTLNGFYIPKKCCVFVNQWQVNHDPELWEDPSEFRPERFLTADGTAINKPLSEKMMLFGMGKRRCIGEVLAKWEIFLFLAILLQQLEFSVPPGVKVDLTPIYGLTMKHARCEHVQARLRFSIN
Description: Inhibition of CYP1A2 in human liver microsomes preincubated for 10 mins followed by NADPH addition measured after 30 mins by LC-MS/MS analysis. Type of data set: ADME.

In data set [17] the test system is Mus musculus. Description: AUC (0 to infinity) in ICR mouse at 100 mg/kg, po. Type of data set: ADME, organism-based, Plasma. On the set-up: time infinity, dose 100 mg/kg, route oral. To be noted: in vivo.

Sequence of Cytochrome P450 2C9 (P11712 whole entry): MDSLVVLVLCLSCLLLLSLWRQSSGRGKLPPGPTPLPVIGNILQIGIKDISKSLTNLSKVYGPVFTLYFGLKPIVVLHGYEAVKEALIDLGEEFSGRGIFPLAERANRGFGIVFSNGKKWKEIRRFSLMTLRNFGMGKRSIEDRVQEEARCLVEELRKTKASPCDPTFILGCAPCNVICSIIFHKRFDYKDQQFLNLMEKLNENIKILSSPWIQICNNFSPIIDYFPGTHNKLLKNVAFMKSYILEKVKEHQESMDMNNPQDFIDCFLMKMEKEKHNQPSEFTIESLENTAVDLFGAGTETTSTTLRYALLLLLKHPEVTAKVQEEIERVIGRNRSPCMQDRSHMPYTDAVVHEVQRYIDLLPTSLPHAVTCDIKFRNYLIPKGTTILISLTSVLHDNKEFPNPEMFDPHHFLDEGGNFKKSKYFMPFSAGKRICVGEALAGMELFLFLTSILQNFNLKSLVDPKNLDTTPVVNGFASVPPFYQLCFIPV
Sequence of Histone deacetylase 1/2/3/6 (Homo sapiens) (O15379 whole entry, looked up, one chain of several): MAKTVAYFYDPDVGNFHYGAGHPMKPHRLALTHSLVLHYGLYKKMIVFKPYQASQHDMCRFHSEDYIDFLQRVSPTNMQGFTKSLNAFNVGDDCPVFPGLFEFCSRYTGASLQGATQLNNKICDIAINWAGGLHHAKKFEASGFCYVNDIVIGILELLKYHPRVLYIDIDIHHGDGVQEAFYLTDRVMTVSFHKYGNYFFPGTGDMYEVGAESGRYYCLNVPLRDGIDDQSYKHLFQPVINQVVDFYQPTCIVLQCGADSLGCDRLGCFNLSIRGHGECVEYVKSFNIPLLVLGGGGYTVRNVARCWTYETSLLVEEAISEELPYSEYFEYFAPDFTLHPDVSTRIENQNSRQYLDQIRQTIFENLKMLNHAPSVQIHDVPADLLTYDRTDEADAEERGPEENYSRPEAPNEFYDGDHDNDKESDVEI
Sequence of Histone deacetylase 1/2/3/6 (Homo sapiens) (Q13547 whole entry, looked up, one chain of several): as the sequence (Q13547 whole entry) above
Sequence of Histone deacetylase 1/2/3/6 (Homo sapiens) (Q92769 whole entry, looked up, one chain of several): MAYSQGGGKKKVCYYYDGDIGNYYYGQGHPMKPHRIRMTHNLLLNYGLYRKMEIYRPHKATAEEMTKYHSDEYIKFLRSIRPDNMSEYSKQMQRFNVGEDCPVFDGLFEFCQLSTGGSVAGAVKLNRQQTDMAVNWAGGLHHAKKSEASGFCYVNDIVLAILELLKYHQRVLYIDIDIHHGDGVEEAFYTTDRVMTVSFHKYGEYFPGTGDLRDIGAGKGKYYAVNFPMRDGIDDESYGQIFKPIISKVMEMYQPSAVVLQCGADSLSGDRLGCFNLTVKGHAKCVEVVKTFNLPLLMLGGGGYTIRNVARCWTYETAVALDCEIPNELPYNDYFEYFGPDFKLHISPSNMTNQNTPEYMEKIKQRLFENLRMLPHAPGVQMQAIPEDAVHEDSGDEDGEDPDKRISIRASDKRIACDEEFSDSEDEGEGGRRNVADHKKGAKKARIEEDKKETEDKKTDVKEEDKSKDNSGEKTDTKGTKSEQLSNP
Description for Histone deacetylase 8: Inhibition of HDAC8 (unknown origin) using RHK(Ac)K(Ac)AMC as substrate

For `O=C(NO)c1ccc(NC2CCN(c3ccccc3)C2=O)cc1` (stereo unspecified), the AUC is 125 µg/L/h with Mus musculus [1] and 3850 µg/L/h in the data set on Mus musculus [3]. Further, the bioavailability – broadly, dose-corrected exposure relative to a reference, in per cent – in data set [2] is at most 1%. In addition, the results for the IC50 (against Histone deacetylase 8; in data set [6]; at Histone deacetylase 1) were 210 nM, 380 nM and 19500 nM, respectively. In addition, the clearance (in general, a measure of how efficiently the substance is removed, as volume per time) in data set [4] was determined as 108 mL/min/kg. Also, the peak level in data set [5] (Cmax) was 34 ng/mL. Also, the CLint scaled at 1 µM in [7] stood at 26 mL/min/kg; in data set [9], 4.6 mL/min/kg. Moreover, the half-life (usually how long it takes for the measured level to halve) in [8] was 0.7 h. Also, in [10], the inhibition entry was “inactive”. For the same molecule, the solubility (usually how much of the substance goes into solution per volume) in data set [11] is 33 µg/mL (≈ 106 µM).
As for `C[C@]1(Nc2ccc(C(=O)NO)cc2)CCN(c2ccc(Cl)cc2)C1=O`, in [12], the EC50 (commonly the concentration that produces a half-maximal response) was 300 nM. Moreover, the IC50 (commonly the concentration that gives 50% inhibition) on Cytochrome P450 2C9 is above 50000 nM; at Cytochrome P450 2D6, above 50000 nM; against Cytochrome P450 3A4, above 50000 nM; against Histone deacetylase 8, 180 nM; in [6], 17 nM; on Histone deacetylase 1, 74100 nM. In addition, the IC50 on Cytochrome P450 2C19 and at Cytochrome P450 1A2 was above 50000 nM in each case. In data set [4], this molecule showed a clearance of 87 mL/min/kg. This molecule also gave a half-life in data set [13] of 2.1 h. Further, the CLint scaled at 1 µM in [7] turned out to be 38 mL/min/kg; in data set [9], 3 mL/min/kg. The AUC came to 1900 µg/L/h with Mus musculus [14] and 10500 µg/L/h with Mus musculus [17]. The molecule further returned a bioavailability in data set [15] of 55%. In data set [16], the Cmax (as a rule, the maximum level reached in the sampled fluid or tissue) worked out at 626 ng/mL. The concentration in solution in data set [11] (solubility) was 22 µg/mL (≈ 61.1 µM).
